Results from the kinase profiling compilation of Christmann-Franck et al. (2016).

How the values were obtained:
Test in all cases: split-luciferase competition binding
[1] = target: AKT1 (human) (UniProt P31749); conditions: compound 10.0 µM
[2] = target: AKT2 (human) (UniProt P31751); conditions: compound 10.0 µM
[3] = target: AKT3 (human) (UniProt Q9Y243); conditions: compound 10.0 µM
[4] = target: AURKA (human) (UniProt O14965); conditions: compound 10.0 µM
[5] = target: AURKB (human) (UniProt Q96GD4); conditions: compound 10.0 µM
[6] = target: AURKC (human) (UniProt Q9UQB9); conditions: compound 10.0 µM
[7] = target: DMPK (human) (UniProt Q09013); conditions: compound 10.0 µM
[8] = target: PDPK1 (human) (UniProt O15530); conditions: compound 10.0 µM
[9] = target: PKN1 (human) (UniProt Q16512); conditions: compound 10.0 µM
[10] = system: PRKACA (mouse); conditions: compound 10.0 µM; accession and sequence are those of the human protein
[11] = target: PRKACB (human) (UniProt P22694); conditions: compound 10.0 µM
[12] = target: PRKCD (human) (UniProt Q05655); conditions: compound 10.0 µM
[13] = target: PRKCE (human) (UniProt Q02156); conditions: compound 10.0 µM
[14] = target: PRKCG (human) (UniProt P05129); conditions: compound 10.0 µM
[15] = target: PRKCH (human) (UniProt P24723); conditions: compound 10.0 µM
[16] = target: PRKCI (human) (UniProt P41743); conditions: compound 10.0 µM
[17] = target: PRKCQ (human) (UniProt Q04759); conditions: compound 10.0 µM
[18] = target: PRKX (human) (UniProt P51817); conditions: compound 10.0 µM
[19] = target: RPS6KA1 KD1 (human) (UniProt Q15418); conditions: compound 10.0 µM
[20] = target: RPS6KA2 KD1 (human) (UniProt Q15349); conditions: compound 10.0 µM
[21] = target: RPS6KA3 KD1 (human) (UniProt P51812); conditions: compound 10.0 µM
[22] = target: RPS6KA4 KD1 (human) (UniProt O75676); conditions: compound 10.0 µM
[23] = target: RPS6KA5 KD1 (human) (UniProt O75582); conditions: compound 10.0 µM
[24] = target: RPS6KA6 KD1 (human) (UniProt Q9UK32); conditions: compound 10.0 µM
[25] = target: SGK2 (human) (UniProt Q9HBY8); conditions: compound 10.0 µM
[26] = target: SGK3 (human) (UniProt Q96BR1); conditions: compound 10.0 µM
[27] = target: STK32B (human) (UniProt Q9NY57); conditions: compound 10.0 µM

Sequence of AKT3 (human) (Q9Y243 whole entry, looked up): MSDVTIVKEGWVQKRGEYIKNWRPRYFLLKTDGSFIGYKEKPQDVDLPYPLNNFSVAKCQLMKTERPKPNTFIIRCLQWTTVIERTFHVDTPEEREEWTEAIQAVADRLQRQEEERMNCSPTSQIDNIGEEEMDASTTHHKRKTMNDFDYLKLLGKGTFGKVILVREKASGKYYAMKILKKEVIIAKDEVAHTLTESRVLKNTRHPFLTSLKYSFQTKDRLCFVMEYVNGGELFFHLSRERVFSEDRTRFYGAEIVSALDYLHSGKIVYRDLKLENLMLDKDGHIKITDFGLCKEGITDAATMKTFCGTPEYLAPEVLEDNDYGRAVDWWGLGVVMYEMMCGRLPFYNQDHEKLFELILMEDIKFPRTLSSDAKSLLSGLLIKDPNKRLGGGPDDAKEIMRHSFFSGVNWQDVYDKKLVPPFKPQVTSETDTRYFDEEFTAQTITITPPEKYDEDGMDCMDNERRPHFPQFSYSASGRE
Sequence of RPS6KA6 KD1 (human) (Q9UK32 whole entry, looked up): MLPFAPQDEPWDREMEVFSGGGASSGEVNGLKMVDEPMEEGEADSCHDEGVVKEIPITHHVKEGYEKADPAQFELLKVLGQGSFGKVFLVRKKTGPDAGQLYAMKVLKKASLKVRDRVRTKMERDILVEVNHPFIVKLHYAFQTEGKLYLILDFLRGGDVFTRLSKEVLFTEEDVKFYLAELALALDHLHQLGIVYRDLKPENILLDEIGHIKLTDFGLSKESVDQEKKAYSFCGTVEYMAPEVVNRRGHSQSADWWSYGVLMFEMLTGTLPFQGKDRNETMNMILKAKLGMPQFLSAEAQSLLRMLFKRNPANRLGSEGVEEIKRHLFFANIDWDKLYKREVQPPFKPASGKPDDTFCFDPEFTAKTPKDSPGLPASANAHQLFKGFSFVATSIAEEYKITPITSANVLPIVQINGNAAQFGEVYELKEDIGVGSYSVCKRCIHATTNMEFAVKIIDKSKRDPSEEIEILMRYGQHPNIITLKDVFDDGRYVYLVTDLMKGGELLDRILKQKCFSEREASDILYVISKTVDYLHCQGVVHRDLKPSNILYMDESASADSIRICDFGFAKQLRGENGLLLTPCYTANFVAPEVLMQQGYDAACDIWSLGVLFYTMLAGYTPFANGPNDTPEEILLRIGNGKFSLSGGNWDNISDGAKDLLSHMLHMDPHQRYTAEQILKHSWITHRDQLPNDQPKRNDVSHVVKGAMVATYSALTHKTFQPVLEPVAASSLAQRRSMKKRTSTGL
Sequence of AURKC (human) (Q9UQB9 whole entry, looked up): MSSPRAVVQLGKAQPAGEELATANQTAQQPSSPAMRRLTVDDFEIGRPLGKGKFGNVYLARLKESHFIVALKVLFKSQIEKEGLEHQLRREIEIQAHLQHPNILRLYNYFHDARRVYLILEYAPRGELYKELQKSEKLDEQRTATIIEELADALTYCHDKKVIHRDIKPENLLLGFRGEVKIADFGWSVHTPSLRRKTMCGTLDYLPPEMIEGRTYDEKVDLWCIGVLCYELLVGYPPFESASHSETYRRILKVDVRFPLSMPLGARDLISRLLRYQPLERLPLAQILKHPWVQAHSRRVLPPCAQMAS
Sequence of DMPK (human) (Q09013 whole entry, looked up): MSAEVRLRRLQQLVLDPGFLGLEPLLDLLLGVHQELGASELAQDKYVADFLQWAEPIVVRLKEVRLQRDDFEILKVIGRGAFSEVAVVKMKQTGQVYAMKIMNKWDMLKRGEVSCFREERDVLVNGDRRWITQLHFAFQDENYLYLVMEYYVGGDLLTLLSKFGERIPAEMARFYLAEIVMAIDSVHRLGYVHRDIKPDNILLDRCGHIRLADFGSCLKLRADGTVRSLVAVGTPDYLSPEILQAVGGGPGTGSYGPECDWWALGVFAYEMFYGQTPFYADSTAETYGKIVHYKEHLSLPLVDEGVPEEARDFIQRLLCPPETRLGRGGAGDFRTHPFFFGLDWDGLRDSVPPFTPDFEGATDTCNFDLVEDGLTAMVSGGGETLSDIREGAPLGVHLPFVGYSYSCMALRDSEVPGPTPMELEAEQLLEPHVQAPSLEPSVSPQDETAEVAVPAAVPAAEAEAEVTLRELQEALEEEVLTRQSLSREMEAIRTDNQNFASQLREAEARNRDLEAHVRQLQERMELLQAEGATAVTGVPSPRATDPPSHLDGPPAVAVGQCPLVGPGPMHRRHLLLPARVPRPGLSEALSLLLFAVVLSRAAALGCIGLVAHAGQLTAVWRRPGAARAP
Sequence of PRKCQ (human) (Q04759 whole entry, looked up): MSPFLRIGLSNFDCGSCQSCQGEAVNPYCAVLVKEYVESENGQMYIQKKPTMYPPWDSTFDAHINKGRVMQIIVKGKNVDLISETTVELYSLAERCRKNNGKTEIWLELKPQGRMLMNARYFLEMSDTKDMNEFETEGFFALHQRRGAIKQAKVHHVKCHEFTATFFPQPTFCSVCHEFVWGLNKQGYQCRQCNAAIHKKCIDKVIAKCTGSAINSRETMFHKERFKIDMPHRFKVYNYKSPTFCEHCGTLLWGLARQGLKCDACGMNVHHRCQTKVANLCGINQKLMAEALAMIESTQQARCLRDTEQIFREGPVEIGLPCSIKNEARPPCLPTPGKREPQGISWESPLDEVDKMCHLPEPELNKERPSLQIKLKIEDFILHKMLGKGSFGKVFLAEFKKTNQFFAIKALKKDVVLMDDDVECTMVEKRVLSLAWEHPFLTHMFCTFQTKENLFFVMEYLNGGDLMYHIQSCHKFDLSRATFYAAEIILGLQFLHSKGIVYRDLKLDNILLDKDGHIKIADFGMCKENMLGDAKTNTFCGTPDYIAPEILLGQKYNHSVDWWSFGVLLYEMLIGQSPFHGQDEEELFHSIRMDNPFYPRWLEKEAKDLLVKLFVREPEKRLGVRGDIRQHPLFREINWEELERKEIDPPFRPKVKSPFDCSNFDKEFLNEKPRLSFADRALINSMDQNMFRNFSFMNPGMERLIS
Sequence of AKT1 (human) (P31749 whole entry, looked up): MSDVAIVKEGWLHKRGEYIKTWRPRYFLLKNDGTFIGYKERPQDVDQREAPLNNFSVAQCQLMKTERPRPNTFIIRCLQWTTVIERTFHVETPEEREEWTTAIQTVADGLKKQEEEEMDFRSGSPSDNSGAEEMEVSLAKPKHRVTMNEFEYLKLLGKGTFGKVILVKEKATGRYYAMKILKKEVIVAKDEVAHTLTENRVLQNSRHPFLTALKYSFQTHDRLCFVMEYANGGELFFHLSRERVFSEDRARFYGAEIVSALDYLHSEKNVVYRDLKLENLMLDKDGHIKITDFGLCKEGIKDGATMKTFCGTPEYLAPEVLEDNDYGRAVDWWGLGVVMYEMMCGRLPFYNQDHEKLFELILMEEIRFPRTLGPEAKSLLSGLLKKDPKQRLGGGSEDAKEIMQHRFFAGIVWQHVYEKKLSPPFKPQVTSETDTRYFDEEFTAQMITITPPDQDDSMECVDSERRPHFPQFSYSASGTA
Sequence of PKN1 (human) (Q16512 whole entry, looked up): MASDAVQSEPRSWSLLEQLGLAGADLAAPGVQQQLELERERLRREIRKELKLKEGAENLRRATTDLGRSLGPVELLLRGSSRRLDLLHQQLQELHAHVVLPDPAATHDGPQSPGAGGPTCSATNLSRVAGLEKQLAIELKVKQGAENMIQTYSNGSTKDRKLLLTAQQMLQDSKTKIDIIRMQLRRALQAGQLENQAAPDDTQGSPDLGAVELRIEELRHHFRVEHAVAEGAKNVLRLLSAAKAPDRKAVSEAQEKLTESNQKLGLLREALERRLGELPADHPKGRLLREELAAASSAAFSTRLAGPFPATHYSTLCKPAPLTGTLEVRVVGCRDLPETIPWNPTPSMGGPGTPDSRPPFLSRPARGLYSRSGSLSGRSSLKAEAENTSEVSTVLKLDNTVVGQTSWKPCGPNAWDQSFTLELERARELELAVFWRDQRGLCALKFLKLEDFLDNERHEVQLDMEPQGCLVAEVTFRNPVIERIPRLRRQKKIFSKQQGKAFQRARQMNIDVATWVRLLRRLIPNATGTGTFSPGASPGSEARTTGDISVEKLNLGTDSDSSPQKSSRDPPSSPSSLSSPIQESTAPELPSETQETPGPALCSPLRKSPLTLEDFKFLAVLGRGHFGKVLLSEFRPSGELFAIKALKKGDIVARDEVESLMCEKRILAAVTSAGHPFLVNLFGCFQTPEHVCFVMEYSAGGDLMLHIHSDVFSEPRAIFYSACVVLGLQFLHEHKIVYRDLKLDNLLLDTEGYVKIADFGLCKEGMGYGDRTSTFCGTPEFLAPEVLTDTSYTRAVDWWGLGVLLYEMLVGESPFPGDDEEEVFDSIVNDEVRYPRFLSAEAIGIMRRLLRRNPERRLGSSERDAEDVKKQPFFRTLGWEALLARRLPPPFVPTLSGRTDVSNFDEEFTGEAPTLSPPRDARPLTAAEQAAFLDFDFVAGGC
Sequence of PRKCI (human) (P41743 whole entry, looked up): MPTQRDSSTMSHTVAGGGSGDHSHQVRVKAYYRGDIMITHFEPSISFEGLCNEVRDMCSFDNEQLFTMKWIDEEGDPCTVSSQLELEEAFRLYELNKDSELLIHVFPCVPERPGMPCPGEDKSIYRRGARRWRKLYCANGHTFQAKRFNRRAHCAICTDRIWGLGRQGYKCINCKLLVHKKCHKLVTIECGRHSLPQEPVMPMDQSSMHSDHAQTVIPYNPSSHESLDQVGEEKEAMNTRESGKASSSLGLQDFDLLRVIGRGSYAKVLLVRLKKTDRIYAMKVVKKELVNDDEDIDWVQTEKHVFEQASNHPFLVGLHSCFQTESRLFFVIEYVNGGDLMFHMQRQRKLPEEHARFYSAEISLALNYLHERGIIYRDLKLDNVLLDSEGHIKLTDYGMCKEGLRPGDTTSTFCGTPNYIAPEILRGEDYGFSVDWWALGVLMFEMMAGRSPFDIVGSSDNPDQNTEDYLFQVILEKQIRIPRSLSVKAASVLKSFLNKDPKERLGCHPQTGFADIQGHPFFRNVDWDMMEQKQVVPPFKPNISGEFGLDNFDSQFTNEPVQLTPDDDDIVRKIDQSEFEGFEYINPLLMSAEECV

SMILES	inhibition [1] [%]	inhibition [2] [%]	inhibition [3] [%]	inhibition [4] [%]	inhibition [5] [%]	inhibition [6] [%]	inhibition [7] [%]	inhibition [8] [%]	inhibition [9] [%]	inhibition [10] [%]	inhibition [11] [%]	inhibition [12] [%]	inhibition [13] [%]	inhibition [14] [%]	inhibition [15] [%]	inhibition [16] [%]	inhibition [17] [%]	inhibition [18] [%]	inhibition [19] [%]	inhibition [20] [%]	further results
O=C1Nc2ccc(I)cc2/C1=C/c1cc(Br)c(O)c(Br)c1	19	0	0	0	26	0	11	0	4	9	11	2	10	5	10	0	0	11	23	14	inhibition [21]: 12%; inhibition [22]: 4%; inhibition [23]: 13%; inhibition [24]: 19%; inhibition [25]: 10%; inhibition [26]: 0%; inhibition [27]: 0%
N#C/C(=C\c1ccc(O)c(O)c1)C(=O)NCc1ccccc1	0	0	0	0	0	10	0	0	0	3	0	2	0	0	0	0	0	0	0	0	inhibition [21]: 0%; inhibition [22]: 0%; inhibition [23]: 0%; inhibition [24]: 0%; inhibition [25]: 0%; inhibition [26]: 0%; inhibition [27]: 0%
Cc1cc2nc3c(=O)[nH]c(=O)nc-3n(C)c2cc1C=O	24	0	0	5	3	12	0	0	0	11	21	31	13	9	8	0	5	2	0	8	inhibition [21]: 0%; inhibition [22]: 0%; inhibition [23]: 8%; inhibition [24]: 1%; inhibition [25]: 3%; inhibition [26]: 0%; inhibition [27]: 18%
COc1cc2ncnc(Nc3ccc(Cl)cc3F)c2cc1OC	0	0	0	7	9	18	0	0	1	2	4	0	2	2	11	0	7	7	0	0	inhibition [21]: 8%; inhibition [22]: 2%; inhibition [23]: 0%; inhibition [24]: 0%; inhibition [25]: 7%; inhibition [26]: 7%; inhibition [27]: 14%
O=C(Nc1cc(C(F)(F)F)cc(C(F)(F)F)c1)c1cc(Cl)ccc1O	0	0	0	0	9	0	3	0	0	0	1	0	11	6	8	0	2	4	1	0	inhibition [21]: 0%; inhibition [22]: 0%; inhibition [23]: 0%; inhibition [24]: 0%; inhibition [25]: 0%; inhibition [26]: 1%; inhibition [27]: 11%
CS(=O)(=O)CCNCc1nc(-c2ccc3ncnc(Nc4ccc(OCc5cccc(F)c5)c(Cl)c4)c3c2)cs1	16	0	0	13	0	21	5	0	0	8	5	0	14	10	6	0	0	7	14	0	inhibition [21]: 0%; inhibition [22]: 6%; inhibition [23]: 0%; inhibition [24]: 5%; inhibition [25]: 11%; inhibition [26]: 6%; inhibition [27]: 9%
C/C(O)=C(\C#N)C(=O)Nc1cc(Br)ccc1Br	0	0	0	0	0	0	0	0	0	7	0	0	0	0	0	0	0	0	0	0	inhibition [21]: 0%; inhibition [22]: 0%; inhibition [23]: 0%; inhibition [24]: 0%; inhibition [25]: 0%; inhibition [26]: 0%; inhibition [27]: 0%
Cn1cnc2c(NCc3ccccc3)nc(NCCO)nc21	5	0	0	0	4	0	0	0	6	5	0	3	0	0	0	0	0	7	0	0	inhibition [21]: 0%; inhibition [22]: 0%; inhibition [23]: 0%; inhibition [24]: 0%; inhibition [25]: 0%; inhibition [26]: 0%; inhibition [27]: 0%
CC(C)(C)n1nc(-c2cccc3ccccc23)c2c(N)ncnc21	18	0	0	0	12	17	27	0	0	32	21	0	14	5	8	0	31	9	24	10	inhibition [21]: 30%; inhibition [22]: 0%; inhibition [23]: 0%; inhibition [24]: 4%; inhibition [25]: 0%; inhibition [26]: 0%; inhibition [27]: 66%
